# Measurements from ChEMBL document CHEMBL3885881, “DrugMatrix”.
# Species on record: Rattus norvegicus
# Test: DrugMatrix - Regimen: Daily Repeat
# Format: toxicity, organism-based, Sprague-Dawley
# Set-up: regimen Daily Repeat, gender Male, age 6-8 weeks
# Conditions: in vivo, po, route oral GAVAGE, vehicle .5 % CMC; for ABSOLUTE BASOPHIL / ABSOLUTE EOSINOPHIL / ABSOLUTE LYMPHOCYTE / ABSOLUTE MONOCYTE / ABSOLUTE SEGMENTED NEUTROPHIL / BASOPHIL / EOSINOPHIL / ERYTHROCYTE COUNT / HEMATOCRIT / HEMOGLOBIN / LEUKOCYTE COUNT / LYMPHOCYTE / MEAN CORPUSCULAR HEMOGLOBIN / MEAN CORPUSCULAR HEMOGLOBIN CONCENTRATION / MONOCYTE / NEUTROPHIL / NUCLEATED RED BLOOD CELLS / PLATELET COUNT: tissue Blood; for ALANINE AMINOTRANSFERASE / ALBUMIN / ALKALINE PHOSPHATASE / ASPARTATE AMINOTRANSFERASE / BLOOD UREA NITROGEN / CARBON DIOXIDE / CHLORIDE / CHOLESTEROL / CREATININE / GLUCOSE / LACTATE DEHYDROGENASE / LIPASE / PHOSPHORUS / POTASSIUM / SODIUM / TOTAL BILIRUBIN / TOTAL PROTEIN / URIC ACID: tissue Plasma
# [1] = 50 mg/kg, 72 h, dose level Low, time 3 day
# [2] = 50 mg/kg, 120 h, dose level Low, time 5 day
# [3] = 600 mg/kg, 72 h, dose level High, time 3 day
# [4] = 600 mg/kg, 120 h, dose level High, time 5 day
compound,measurement,setting,value
N[C@@H]1[C@H]2CN(c3nc4c(cc3F)c(=O)c(C(=O)O)cn4-c3ccc(F)cc3F)C[C@@H]12 [TROVAFLOXACIN],ABSOLUTE BASOPHIL,[1],0 CELLS/uL
same,ABSOLUTE EOSINOPHIL,[1],332.33 CELLS/uL
same,ABSOLUTE LYMPHOCYTE,[1],13247 CELLS/uL
same,ABSOLUTE MONOCYTE,[1],338.33 CELLS/uL
same,ABSOLUTE SEGMENTED NEUTROPHIL,[1],2282.33 CELLS/uL
same,BASOPHIL,[1],0%
same,EOSINOPHIL,[1],2%
same,ERYTHROCYTE COUNT,[1],5.64 x10E6/uL
same,HEMATOCRIT,[1],34.17%
same,HEMOGLOBIN,[1],12.5 G/DL
same,LEUKOCYTE COUNT,[1],16.2 x10E3/uL
same,LYMPHOCYTE,[1],82%
same,MEAN CORPUSCULAR HEMOGLOBIN,[1],22.13 pg
same,MEAN CORPUSCULAR HEMOGLOBIN CONCENTRATION,[1],36.57 G/DL
same,MONOCYTE,[1],2%
same,NEUTROPHIL,[1],14%
same,NUCLEATED RED BLOOD CELLS,[1],0 /100WBC
same,PLATELET COUNT,[1],1160 x10E3/uL
same,ALANINE AMINOTRANSFERASE,[1],50.67 u/L
same,ALBUMIN,[1],4.23 G/DL
same,ALKALINE PHOSPHATASE,[1],421 u/L
same,ASPARTATE AMINOTRANSFERASE,[1],75.33 u/L
same,BLOOD UREA NITROGEN,[1],16 mg/dL
same,CARBON DIOXIDE,[1],27 mmol/L
same,CHLORIDE,[1],102.33 MEQ/L
same,CHOLESTEROL,[1],86.33 mg/dL
same,CREATININE,[1],0.17 mg/dL
same,GLUCOSE,[1],151 mg/dL
same,LACTATE DEHYDROGENASE,[1],114.67 u/L
same,LIPASE,[1],9.33 u/L
same,PHOSPHORUS,[1],13.33 mg/dL
same,POTASSIUM,[1],6.87 MEQ/L
same,SODIUM,[1],148.2 MEQ/L
same,TOTAL BILIRUBIN,[1],0.17 mg/dL
same,TOTAL PROTEIN,[1],6.3 G/DL
same,URIC ACID,[1],1.47 mg/dL
same,ABSOLUTE BASOPHIL,[2],0 CELLS/uL
same,ABSOLUTE EOSINOPHIL,[2],225.67 CELLS/uL
same,ABSOLUTE LYMPHOCYTE,[2],14834.67 CELLS/uL
same,ABSOLUTE MONOCYTE,[2],380.67 CELLS/uL
same,ABSOLUTE SEGMENTED NEUTROPHIL,[2],2392.33 CELLS/uL
same,BASOPHIL,[2],0%
same,EOSINOPHIL,[2],1.33%
same,ERYTHROCYTE COUNT,[2],5.73 x10E6/uL
same,HEMATOCRIT,[2],34.4%
same,HEMOGLOBIN,[2],12.63 G/DL
same,LEUKOCYTE COUNT,[2],17.83 x10E3/uL
same,LYMPHOCYTE,[2],82.67%
same,MEAN CORPUSCULAR HEMOGLOBIN,[2],22.13 pg
same,MEAN CORPUSCULAR HEMOGLOBIN CONCENTRATION,[2],36.73 G/DL
same,MONOCYTE,[2],2%
same,NEUTROPHIL,[2],14%
same,NUCLEATED RED BLOOD CELLS,[2],0 /100WBC
same,PLATELET COUNT,[2],1198 x10E3/uL
same,ALANINE AMINOTRANSFERASE,[2],44.67 u/L
same,ALBUMIN,[2],4 G/DL
same,ALKALINE PHOSPHATASE,[2],375.33 u/L
same,ASPARTATE AMINOTRANSFERASE,[2],95 u/L
same,BLOOD UREA NITROGEN,[2],15.33 mg/dL
same,CARBON DIOXIDE,[2],27.67 mmol/L
same,CHLORIDE,[2],100.33 MEQ/L
same,CHOLESTEROL,[2],77.67 mg/dL
same,CREATININE,[2],0.14 mg/dL
same,GLUCOSE,[2],165.33 mg/dL
same,LACTATE DEHYDROGENASE,[2],482.33 u/L
same,LIPASE,[2],9 u/L
same,PHOSPHORUS,[2],13.63 mg/dL
same,POTASSIUM,[2],6.38 MEQ/L
same,SODIUM,[2],144.47 MEQ/L
same,TOTAL BILIRUBIN,[2],0.13 mg/dL
same,TOTAL PROTEIN,[2],5.9 G/DL
same,URIC ACID,[2],2.13 mg/dL
same,ABSOLUTE BASOPHIL,[3],0 CELLS/uL
same,ABSOLUTE EOSINOPHIL,[3],206 CELLS/uL
same,ABSOLUTE LYMPHOCYTE,[3],11774.33 CELLS/uL
same,ABSOLUTE MONOCYTE,[3],306 CELLS/uL
same,ABSOLUTE SEGMENTED NEUTROPHIL,[3],3013.67 CELLS/uL
same,BASOPHIL,[3],0%
same,EOSINOPHIL,[3],1.33%
same,ERYTHROCYTE COUNT,[3],5.75 x10E6/uL
same,HEMATOCRIT,[3],34.53%
same,HEMOGLOBIN,[3],12.7 G/DL
same,LEUKOCYTE COUNT,[3],15.3 x10E3/uL
same,LYMPHOCYTE,[3],78.33%
same,MEAN CORPUSCULAR HEMOGLOBIN,[3],22.13 pg
same,MEAN CORPUSCULAR HEMOGLOBIN CONCENTRATION,[3],36.77 G/DL
same,MONOCYTE,[3],2%
same,NEUTROPHIL,[3],18.33%
same,NUCLEATED RED BLOOD CELLS,[3],0 /100WBC
same,PLATELET COUNT,[3],1258 x10E3/uL
same,ALANINE AMINOTRANSFERASE,[3],35.33 u/L
same,ALBUMIN,[3],4.27 G/DL
same,ALKALINE PHOSPHATASE,[3],290.67 u/L
same,ASPARTATE AMINOTRANSFERASE,[3],69.67 u/L
same,BLOOD UREA NITROGEN,[3],19.67 mg/dL
same,CARBON DIOXIDE,[3],25.33 mmol/L
same,CHLORIDE,[3],106.33 MEQ/L
same,CHOLESTEROL,[3],81.33 mg/dL
same,CREATININE,[3],0.16 mg/dL
same,GLUCOSE,[3],145 mg/dL
same,LACTATE DEHYDROGENASE,[3],197 u/L
same,LIPASE,[3],9.33 u/L
same,PHOSPHORUS,[3],13.8 mg/dL
same,POTASSIUM,[3],6.71 MEQ/L
same,SODIUM,[3],151.87 MEQ/L
same,TOTAL BILIRUBIN,[3],0.17 mg/dL
same,TOTAL PROTEIN,[3],6.43 G/DL
same,URIC ACID,[3],1.63 mg/dL
same,ABSOLUTE BASOPHIL,[4],0 CELLS/uL
same,ABSOLUTE EOSINOPHIL,[4],229.8 CELLS/uL
same,ABSOLUTE LYMPHOCYTE,[4],12826.8 CELLS/uL
same,ABSOLUTE MONOCYTE,[4],343 CELLS/uL
same,ABSOLUTE SEGMENTED NEUTROPHIL,[4],1100.4 CELLS/uL
same,BASOPHIL,[4],0%
same,EOSINOPHIL,[4],1.6%
same,ERYTHROCYTE COUNT,[4],5.94 x10E6/uL
same,HEMATOCRIT,[4],35.56%
same,HEMOGLOBIN,[4],12.98 G/DL
same,LEUKOCYTE COUNT,[4],14.5 x10E3/uL
same,LYMPHOCYTE,[4],88.4%
same,MEAN CORPUSCULAR HEMOGLOBIN,[4],21.88 pg
same,MEAN CORPUSCULAR HEMOGLOBIN CONCENTRATION,[4],36.5 G/DL
same,MONOCYTE,[4],2.4%
same,NEUTROPHIL,[4],7.6%
same,NUCLEATED RED BLOOD CELLS,[4],0 /100WBC
same,PLATELET COUNT,[4],1294.2 x10E3/uL
same,ALANINE AMINOTRANSFERASE,[4],42 u/L
same,ALBUMIN,[4],4.16 G/DL
same,ALKALINE PHOSPHATASE,[4],348.4 u/L
same,ASPARTATE AMINOTRANSFERASE,[4],67.4 u/L
same,BLOOD UREA NITROGEN,[4],17.8 mg/dL
same,CARBON DIOXIDE,[4],29.6 mmol/L
same,CHLORIDE,[4],102 MEQ/L
same,CHOLESTEROL,[4],83 mg/dL
same,CREATININE,[4],0.15 mg/dL
same,GLUCOSE,[4],156 mg/dL
same,LACTATE DEHYDROGENASE,[4],129.8 u/L
same,LIPASE,[4],9.8 u/L
same,PHOSPHORUS,[4],14.22 mg/dL
same,POTASSIUM,[4],6.78 MEQ/L
same,SODIUM,[4],146.28 MEQ/L
same,TOTAL BILIRUBIN,[4],0.14 mg/dL
same,TOTAL PROTEIN,[4],6 G/DL
same,URIC ACID,[4],1.88 mg/dL
